In ChEMBL document CHEMBL3804767, “Discovery and Preclinical Evaluation of BMS-955829, a Potent Positive Allosteric Modulator of mGluR5” (ACS Med Chem Lett, 2016):

Key:
[1] = target: T1, Metabotropic glutamate receptor 5 (Homo sapiens, UniProt P41594); assay: Displacement of [3H]MPEP in mGlu5 receptor (unknown origin) incubated for 60 mins by liquid scintillation counting method
[2] = target: T1, Metabotropic glutamate receptor 5
Description: Positive allosteric modulation of human mGlu5A receptor expressed in HEK293 cells coexpressing rat glutamate-aspartate transporter assessed as potentiation of L-glutamate-induced Ca2+ signal incubated for 60 mins by calcium 4 dye based FLIPR assay

[3] = target: T1, Metabotropic glutamate receptor 5; remark: listed apart in the source
Description: Agonist activity at human mGlu5A receptor expressed in HEK293 cells coexpressing rat glutamate-aspartate transporter assessed as induction of Ca2+ release by calcium 4 dye based FLIPR assay

[4] = tested on: Mus musculus; assay: Neurotoxicity in C57/BL6 mouse assessed as induction of convulsion at 30 mg/kg, ip; assay type: toxicity, organism-based; conditions: in vivo
[5] = Protein binding in plasma (unknown origin); assay type: ADME, cell-free; conditions: read-out: PPB (converted)
[6] = target: T1, Metabotropic glutamate receptor 5; remark: listed apart in the source
Description: Displacement of [3H]MPEPgamma in mGlu5 receptor (unknown origin) incubated for 60 mins by liquid scintillation counting method

[7] = target: Metabotropic glutamate receptor 5 (Rattus norvegicus, UniProt P31424); assay: Agonist activity at mGlu5A receptor in primary rat cortical astrocytes; assay type: cell-based
Chain of Metabotropic glutamate receptor 5 (Rattus norvegicus, UniProt P31424) (P31424 whole entry): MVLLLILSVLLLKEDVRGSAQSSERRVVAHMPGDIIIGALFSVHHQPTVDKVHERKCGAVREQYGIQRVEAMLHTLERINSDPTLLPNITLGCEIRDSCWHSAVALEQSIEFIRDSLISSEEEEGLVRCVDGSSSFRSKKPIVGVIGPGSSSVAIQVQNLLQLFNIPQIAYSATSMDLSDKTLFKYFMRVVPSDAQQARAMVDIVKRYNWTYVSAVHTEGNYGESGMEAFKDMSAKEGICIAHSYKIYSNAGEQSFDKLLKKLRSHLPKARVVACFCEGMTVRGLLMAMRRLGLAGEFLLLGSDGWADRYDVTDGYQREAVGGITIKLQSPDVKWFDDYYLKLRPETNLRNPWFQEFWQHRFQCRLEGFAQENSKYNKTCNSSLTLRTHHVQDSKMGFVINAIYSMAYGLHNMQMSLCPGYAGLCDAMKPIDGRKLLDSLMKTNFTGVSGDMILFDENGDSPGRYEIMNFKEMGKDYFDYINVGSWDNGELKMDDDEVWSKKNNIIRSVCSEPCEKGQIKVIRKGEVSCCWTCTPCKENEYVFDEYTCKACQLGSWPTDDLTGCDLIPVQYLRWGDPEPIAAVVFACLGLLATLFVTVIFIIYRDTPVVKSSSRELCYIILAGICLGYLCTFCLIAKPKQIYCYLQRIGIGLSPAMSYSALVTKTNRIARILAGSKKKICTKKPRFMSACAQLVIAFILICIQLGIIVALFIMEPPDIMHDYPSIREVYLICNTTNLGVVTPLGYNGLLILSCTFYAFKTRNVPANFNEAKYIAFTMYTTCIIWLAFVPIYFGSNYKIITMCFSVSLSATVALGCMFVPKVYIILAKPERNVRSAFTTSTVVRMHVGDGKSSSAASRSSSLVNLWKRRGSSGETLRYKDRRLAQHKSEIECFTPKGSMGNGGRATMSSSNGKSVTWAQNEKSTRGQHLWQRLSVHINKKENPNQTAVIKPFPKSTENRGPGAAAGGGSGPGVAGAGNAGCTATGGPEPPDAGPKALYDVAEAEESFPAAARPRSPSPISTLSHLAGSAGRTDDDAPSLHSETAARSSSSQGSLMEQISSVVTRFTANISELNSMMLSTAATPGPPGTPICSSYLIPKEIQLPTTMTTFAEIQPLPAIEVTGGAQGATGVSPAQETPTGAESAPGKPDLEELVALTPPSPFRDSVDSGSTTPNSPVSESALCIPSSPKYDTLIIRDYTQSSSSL

[8] = tested on: Mus musculus; assay: Neurotoxicity in C57/BL6 mouse assessed as induction of convulsion at 10 mg/kg, ip; assay type: toxicity, organism-based; conditions: in vivo
[9] = tested on: Mus musculus; assay: Neurotoxicity in C57/BL6 mouse assessed as induction of convulsion at 10 mg/kg, ip coadministered with (4R,5R)-5-Phenyl-4-(4-(phenylethynyl)pyridin-2-yl)oxazolidin-2-one; assay type: toxicity, organism-based; conditions: in vivo

T1 sequence (P41594 whole entry): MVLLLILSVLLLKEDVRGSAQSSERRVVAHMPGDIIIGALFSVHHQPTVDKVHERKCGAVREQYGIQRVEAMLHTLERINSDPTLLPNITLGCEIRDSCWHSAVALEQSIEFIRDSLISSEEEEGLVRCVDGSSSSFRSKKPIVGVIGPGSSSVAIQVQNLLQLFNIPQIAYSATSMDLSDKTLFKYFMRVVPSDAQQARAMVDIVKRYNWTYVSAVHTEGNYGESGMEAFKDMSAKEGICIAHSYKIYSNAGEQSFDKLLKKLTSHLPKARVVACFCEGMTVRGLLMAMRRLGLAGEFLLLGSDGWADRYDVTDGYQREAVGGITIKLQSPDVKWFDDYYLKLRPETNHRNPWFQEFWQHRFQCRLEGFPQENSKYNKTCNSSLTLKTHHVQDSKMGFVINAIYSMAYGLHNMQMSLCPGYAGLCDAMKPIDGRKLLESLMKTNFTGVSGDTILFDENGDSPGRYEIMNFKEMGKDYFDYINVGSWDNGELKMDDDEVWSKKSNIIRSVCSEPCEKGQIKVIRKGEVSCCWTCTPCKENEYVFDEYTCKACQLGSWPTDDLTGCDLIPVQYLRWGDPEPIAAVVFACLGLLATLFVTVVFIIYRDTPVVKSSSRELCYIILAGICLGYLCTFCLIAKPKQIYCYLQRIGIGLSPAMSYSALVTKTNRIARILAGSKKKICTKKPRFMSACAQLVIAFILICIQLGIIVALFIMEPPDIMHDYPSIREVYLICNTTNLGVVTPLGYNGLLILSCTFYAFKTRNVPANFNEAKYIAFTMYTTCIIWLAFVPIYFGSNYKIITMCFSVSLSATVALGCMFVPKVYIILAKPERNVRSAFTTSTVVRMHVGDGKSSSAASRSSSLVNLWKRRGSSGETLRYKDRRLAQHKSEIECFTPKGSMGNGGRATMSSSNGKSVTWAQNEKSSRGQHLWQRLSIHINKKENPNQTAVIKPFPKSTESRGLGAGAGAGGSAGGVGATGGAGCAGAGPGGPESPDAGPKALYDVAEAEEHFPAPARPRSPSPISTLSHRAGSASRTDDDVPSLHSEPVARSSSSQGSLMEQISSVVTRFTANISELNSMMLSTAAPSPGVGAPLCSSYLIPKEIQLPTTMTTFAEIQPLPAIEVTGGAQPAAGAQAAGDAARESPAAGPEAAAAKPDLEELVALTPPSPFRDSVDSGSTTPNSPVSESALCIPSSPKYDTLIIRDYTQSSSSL

| Ki [1] [µM] | EC50 [2] [µM] | EC50 [3] [µM] | fraction unbound [5] | Ki [6] [µM] | EC50 [7] [µM] | SMILES | Activity [4] | Activity [8] | Activity [9] |
| --- | --- | --- | --- | --- | --- | --- | --- | --- | --- |
| 0.0065 | 0.015 | > 30 |  |  |  | O=C1N[C@H](c2cccc(C#Cc3ccccc3)c2)[C@@H](c2cccc(F)c2)O1 |  |  |  |
|  | > 3 | > 3 | 0.006 | 0.01 |  | O=C1N[C@H](c2cc(C#Cc3ccccc3)ccn2)[C@@H](c2ccccc2)O1 | Non-toxic |  |  |
|  | 0.006 |  | 0.035 | 0.025 | 0.31 | O=C1N[C@H](c2cncc(C#Cc3cncc(F)c3)c2)[C@@H](c2ccc(F)cc2)O1 |  | Toxic | Non-toxic |
